According to US9931350B2, “Anti-infective and osteogenic compositions and methods of use” (BRIGHAM YOUNG UNIVERSITY, priority 2014, dated 2018):
Converted amounts (≈) assume the structure as drawn.

How the values were obtained:
[1] = test system: methicillin-resistant S. aureus (MRSA); assay: MIC against methicillin-resistant S. aureus; assay type: cell-based; conditions: Staphylococcus aureus, TSB, 37° C., 24 hours
Protocol: (§1) Representative Procedure for Measuring MIC Values: A suspension is prepared of bacteria containing ˜10^6CFU (colony forming units)/mL from a culture incubated in TSB at 37° C. for 24 hours. Aliquots of 1 mL of the suspension are added to test tubes containing 1 mL TSB and incrementally varied concentrations of CSA compound. The samples are subjected to stationary incubation at 37° C. for 24 hours. Sample turbidity is determined by measuring absorption at 760 nm (HP 8453 UV-Visible Chemstation, Hewlett Packard). Additionally, an alliquot from each of the samples showing no measurable turbidity is subcultured on TSA plates (alliquots were diluted to provide fewer than 300 CFU). Colonies that grow on the subculture after overnight incubation are counted and the number of CFU/mL in the samples is calculated. The calculated values are compared to the number of CFU/mL in the original inoculum. MIC values are determined as the concentrations of the studied compounds at which the number of CFU/mL remained constant or decreased after incubation for 24 hours. CSA compounds were screened against methicillin-resistant S. aureus (MRSA) and tobramycin-resistant P. aeruginosa (TRPA).

[2] = test system: tobramycin-resistant P. aeruginosa (TRPA); assay: MIC against tobramycin-resistant P. aeruginosa; assay type: cell-based; conditions: Pseudomonas aeruginosa; TSB, 37° C., 24 hours
Protocol: as §1

[3] = test system: ectopic bone formation; assay: Mammalian ectopic bone formation model; assay type: in vivo, mouse
Text: Bone formation was examined by XR (Faxitron) and quantified by microCT (Skyscan 1174). Bone nodules were also examined by histology.

[4] = test system: open fracture; assay: Mammalian open fracture model, without bacteria inoculation; assay type: in vivo, rats
Text: (§2) In this model, infection was initiated by delivery of 10^4 CFU of pathogenic Staphlococcus aureus in ACS at the time of surgery. […] The primary outcome measure was the number of animals culled with infected fractures. Animal health and radiographic bone healing were monitored by an experienced veterinarian in a blinded fashion to inoculation or treatment. Animals diagnosed as having progressively deteriorating condition with XRs showing evidence of infection were culled and infection confirmed by culture swab post-mortem. Secondary outcome measures included union at 3 weeks and 6 weeks (excluding pin-slippage), and bone callus microCT measures at 6 weeks.

[5] = test system: Staphlococcus aureus; assay: Mammalian open fracture model, inoculated with S. aureus; assay type: in vivo, rats
Text: as §2

For `CCCCCN(CCCCC)CCC[C@@H](C)[C@H]1CC[C@H]2[C@@H]3[C@H](OCCCN)C[C@@H]4C[C@H](OCCCN)CC[C@]4(C)[C@H]3C[C@H](OCCCN)[C@]12C` [CSA-90], the MIC [1] was 0.6 µg/mL (≈ 0.851 µM), the MIC [2] was 3 µg/mL (≈ 4.25 µM) and the “Mean bone volume by microCT” value ([3]; 25 μg CSA-90 added to 10 μg rhBMP-2 in ACS, P=0.02) was “significantly increased”. For the same compound, the “Mean bone volume by microCT” value ([3]; 250 μg CSA-90 added to 10 μg rhBMP-2 in ACS, P<0.01) was “significantly increased”, the “Osteoclast number, histological assessment” value ([3]; CSA-90 treatment) was “no significant decrease” and the “Histological assessment of bone nodules” value ([3]; rhBMP-2 treated groups, CSA-90 treatment alone (250 μg)) was “evidence of localized tissue mineralization”. For the same compound, the “Union rate at 3 weeks” value ([4]; 3 weeks, treated groups with and without inoculation) was ~50%, the “Union rate by 6 weeks” value ([4]; 6 weeks) was “increased but not to 100%” and the “Pin Slip Cull Rate” value ([4]; no bacteria) was 0%. For the same compound, the “Infected Cull Rate” value ([4]; no bacteria, 250 μg CSA-90 and/or 10 μg rhBMP-2 via ACS) was 0%, the “# Infected Culls” value ([4]; no bacteria, animals/group) was 0/6 and the “# Pin Slips” value ([4]; no bacteria, animals/group) was 0/6. The “Pin Slip Cull Rate” value ([5]; 10^4 cfu Staph) was 20%, the “Infected Cull Rate” value ([5]; 10^4 cfu Staph, 250 μg CSA-90 and/or 10 μg rhBMP-2 via ACS) was 0% and the “# Infected Culls” value ([5]; 10^4 cfu Staph, animals/group) was 0/5. For the same compound, the “# Pin Slips” value ([5]; 10^4 cfu Staph, animals/group) was 1/5, the “Animals culled with a pin slip (no infection seen in culture)” value ([5]; inoculated group) was “one” and the “Animals culled with infected fractures” value ([5]; inoculated with S. aureus) was “no infected culls”.

`CCCCCCCCN(CCCCCCCC)CCC[C@@H](C)[C@H]1CC[C@H]2[C@@H]3[C@H](OCCCN)C[C@@H]4C[C@H](OCCCN)CC[C@]4(C)[C@H]3C[C@H](OCCCN)[C@]12C` [CSA-91] was tested, and the MIC [1] was 5 µg/mL (≈ 6.33 µM) and the MIC [2] was 6 µg/mL (≈ 7.6 µM).
